Data: ChEMBL document CHEMBL4325927, “Synthesis, Anti-HBV, and Anti-HIV Activities of 3'-Halogenated Bis(hydroxymethyl)-cyclopentenyladenines” (ACS Med Chem Lett, 2018)
pEC50: −log10 of the molar value.

Experiments:
[1] = tested on: Human immunodeficiency virus 1; test: Antiviral activity against HIV-1 3B infected in human MT2 cells assessed as inhibition of virus-induced cytopathic effect after 7 days by MTT assay; assay type: functional, organism-based; details: Human immunodeficiency virus 1, 3B, MT2, 168 h
HBV genotype D = test: Antiviral activity against HBV genotype D infected in human HepG2.2.15 cells assessed as reduction in viral DNA level after 7 days by RT-PCR assay; assay type: functional, organism-based; details: Hepatitis B virus, HepG2.2.15, 168 h
[2] = Cytotoxicity against human HepG2.2.15 cells after 7 days by MTT assay; assay type: cell-based, HepG2 2.2.15
[3] = Cytotoxicity against human MT2 cells after 7 days by MTT assay; assay type: cell-based
[4] = Selectivity index, ratio of CC50 for cytotoxicity against human HepG2.2.15 cells to EC50 for HBV genotype D infected in human HepG2.2.15 cells; assay type: toxicity, cell-based; details: read-out: Ratio CC50/EC50

Compound | pEC50 [1] | pEC50 (HBV genotype D) | CC50 at 168 h [2] | CC50 at 168 h [3] | selectivity ratio [4]
Nc1ncnc2c1ncn2[C@H]1C=C(Br)[C@H](CO)[C@H]1CO | < 4.00 | 7.54 | > 100 µM | > 100 µM | –
Nc1ncnc2c1ncn2[C@@H]1C=C[C@H](CO)[C@H]1CO | 6.11 | 7.34 | > 100 µM | 153 µM | –
Nc1ncnc2c1ncn2[C@H]1C=C(Cl)[C@H](CO)[C@H]1CO | < 4.00 | 6.84 | – | > 100 µM | –
Nc1ncnc2c1ncn2[C@H]1C=C(F)[C@H](CO)[C@H]1CO | < 4.00 | 7.72 | > 100 µM | > 100 µM | 5260
Nc1ncnc2c1ncn2[C@H]1C=C(I)[C@H](CO)[C@H]1CO | < 4.00 | 6.36 | – | > 100 µM | –
C=C1[C@H](CO)[C@@H](O)C[C@@H]1n1cnc2c(=O)[nH]c(N)nc21 [ENTECAVIR] | – | 8.42 | 52.9 µM | – | –
